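96-well plates; 48 h exposure; 5 concentrations. Endpoints by linear interpolation between flanking doses. Not reached: highest tested concentration assigned. GI50: concentration for 50% inhibition of growth. TGI: concentration producing complete growth inhibition.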
Tests used:
Assay in all cases: NCI anticancer screen, dose series, 48 h
[1] = test system: 786-0 renal
[2] = test system: A498 renal
[3] = test system: A549 NSCLC
[4] = test system: ACHN renal
[5] = test system: BT-549 breast
[6] = test system: CAKI-1 renal
[7] = test system: CCRF-CEM leukemia
[8] = test system: COLO 205 colon
[9] = test system: DU-145 prostate
[10] = test system: EKVX NSCLC
[11] = test system: HCC-2998 colon
[12] = test system: HCT-116 colon
[13] = test system: HCT-15 colon
[14] = test system: HL-60(TB) leukemia
[15] = test system: HOP-62 NSCLC
[16] = test system: HOP-92 NSCLC
[17] = test system: HS 578T breast
[18] = test system: HT29 colon
[19] = test system: IGROV1 ovarian
[20] = test system: K-562 leukemia
[21] = test system: KM12 colon
[22] = test system: LOX IMVI melanoma
[23] = test system: M14 melanoma
[24] = test system: MALME-3M melanoma
[25] = test system: MCF7 breast
[26] = test system: MDA-MB-231 breast
[27] = test system: MDA-MB-435
[28] = test system: MOLT-4 leukemia
[29] = test system: NCI-H226 lung
[30] = test system: NCI-H23 lung
[31] = test system: NCI-H460 lung
[32] = test system: NCI-H522 lung
[33] = test system: NCI/ADR-RES ovarian
[34] = test system: OVCAR-3 ovarian
[35] = test system: OVCAR-4 ovarian
[36] = test system: OVCAR-5 ovarian
[37] = test system: OVCAR-8 ovarian
[38] = test system: PC-3 prostate
[39] = test system: SF-268 CNS
[40] = test system: SF-295 CNS
[41] = test system: SF-539 CNS
[42] = test system: SK-MEL-2 melanoma
[43] = test system: SK-MEL-28 melanoma
[44] = test system: SK-MEL-5 melanoma
[45] = test system: SK-OV-3 ovarian
[46] = test system: SN12C renal
[47] = test system: SNB-19 CNS
[48] = test system: SNB-75 CNS
[49] = test system: SW-620 colon
[50] = test system: T-47D breast
[51] = test system: TK-10 renal
[52] = test system: UACC-257 melanoma
[53] = test system: UACC-62 melanoma
[54] = test system: UO-31 renal

CN1CCN(c2ccc(Nc3nc(NCCCNS(=O)(=O)c4cccc5ccccc45)c4sccc4n3)cc2)CC1
GI50 [1]: 1.78 µM | TGI [1]: 3.44 µM | GI50 [2]: 2.86 µM | TGI [2]: 9.4 µM | GI50 [3]: 3.42 µM | TGI [3]: 19.9 µM | GI50 [4]: 3.39 µM | TGI [4]: 10.6 µM | GI50 [5]: 5.23 µM | TGI [5]: 21.4 µM | GI50 [6]: 3.85 µM | TGI [6]: 14.7 µM | GI50 [7]: 3.35 µM | TGI [7]: > 100 µM | GI50 [8]: 2.12 µM | TGI [8]: 4.31 µM | GI50 [9]: 6.23 µM | TGI [9]: 20.5 µM | GI50 [10]: 7.21 µM | TGI [10]: 20.7 µM | GI50 [11]: 1.97 µM | TGI [11]: 4.37 µM | GI50 [12]: 2.27 µM | TGI [12]: 6.14 µM | GI50 [13]: 1.78 µM | TGI [13]: 3.53 µM | GI50 [14]: 2.06 µM | TGI [14]: 4.74 µM | GI50 [15]: 15.3 µM | TGI [15]: 32.4 µM | GI50 [16]: 7.45 µM | TGI [16]: 27.7 µM | GI50 [17]: 2.32 µM | TGI [17]: 7.61 µM | GI50 [18]: 2.41 µM | TGI [18]: 7.52 µM | GI50 [19]: 2.92 µM | TGI [19]: 10.2 µM | GI50 [20]: 3.1 µM | TGI [20]: > 100 µM | GI50 [21]: 4.67 µM | TGI [21]: 22.7 µM | GI50 [22]: 1.66 µM | TGI [22]: 3.05 µM | GI50 [23]: 1.9 µM | TGI [23]: 3.48 µM | GI50 [24]: 1.79 µM | TGI [24]: 3.19 µM | GI50 [25]: 2.2 µM | TGI [25]: 5.25 µM | GI50 [26]: 2.08 µM | TGI [26]: 4.06 µM | GI50 [27]: 1.76 µM | TGI [27]: 3.21 µM | GI50 [28]: 2.93 µM | TGI [28]: 11.9 µM | GI50 [29]: 12.2 µM | TGI [29]: 34.4 µM | GI50 [30]: 7.35 µM | TGI [30]: 22.3 µM | GI50 [31]: 3.44 µM | TGI [31]: 10.6 µM | GI50 [32]: 1.81 µM | TGI [32]: 3.92 µM | GI50 [33]: 5.29 µM | TGI [33]: 19.8 µM | GI50 [34]: 3.32 µM | TGI [34]: 10.5 µM | GI50 [35]: 3.43 µM | TGI [35]: 13 µM | GI50 [36]: 4.51 µM | TGI [36]: 16.5 µM | GI50 [37]: 4.44 µM | TGI [37]: 23.5 µM | GI50 [38]: 5.69 µM | TGI [38]: > 100 µM | GI50 [39]: 3.43 µM | TGI [39]: 20.8 µM | GI50 [40]: 1.86 µM | TGI [40]: 3.81 µM | GI50 [41]: 1.72 µM | TGI [41]: 3.11 µM | GI50 [42]: 2.36 µM | TGI [42]: 5.79 µM | GI50 [43]: 1.73 µM | TGI [43]: 3.22 µM | GI50 [44]: 1.78 µM | TGI [44]: 3.19 µM | GI50 [45]: 20.8 µM | TGI [45]: 39.5 µM | GI50 [46]: 6.48 µM | TGI [46]: 19.7 µM | GI50 [47]: 5.75 µM | TGI [47]: 18.3 µM | GI50 [48]: 12.7 µM | TGI [48]: 25.4 µM | GI50 [49]: 2.02 µM | TGI [49]: 4.04 µM | GI50 [50]: 2.76 µM | TGI [50]: 9 µM | GI50 [51]: 4.54 µM | TGI [51]: 16.5 µM | GI50 [52]: 1.83 µM | TGI [52]: 3.54 µM | GI50 [53]: 1.69 µM | TGI [53]: 3.13 µM | GI50 [54]: 2.35 µM | TGI [54]: 7.81 µM
